Experimental data from patent publication US6630128B1, “Porphyrin derivatives their use in photodynamic therapy and medical devices containing them” (Destiny Pharma Limited, priority 1999, dated 2003).
Read-outs that look alike come from different tables or passages of the source.

Columns and labels:
[1] = Fluorescence quantum yields (corrected emission spectra, relative to TPP); assay type: physicochemical; details: excitation wavelength 355 nm, emission 550-800 nm
Method: Mass spectra were recorded on a Finnigan MAT TSQ 700 triple quadrupole mass spectrometer equipped with an […]. The matrix-assisted laser desorption/ionization mass spectra of the porphyrins were obtained using a dithranol matrix. FAB-MS spectra were obtained using a 3-nitrobenzyl alcohol (NOBA) matrix. ^1H-NMR spectra were measured at 60 MHz on a Jeol JNM-PMX60 spectrometer, at 270 MHz on a Jeol EX 270 spectrometer and at 300 MHx on a Varian Gemini-300 spectrometer in CDCl3 using TMS as an internal reference. Ultraviolet/visible spectra of solutions of compounds in tetrahydrofuran (THF) or toluene were measured using a Hitachi U-3000 spectrophotometer or a ATI-Unicam UV-2 spectrophotometer. Reflectance-absorbance infra red (RAIR) spectra were recorded on a BIO-RAD FTS 165 spectrophotometer. Fluorescence emission spectra were recorded using a Spex Fluorolog 3 spectrophotometer at an excitation wavelength of 355 nm, emission at 550 to 800 nm, with a bandpass of 2 nm.
The emission spectra were recorded using a Spex Fluorolog 3, excitation wavelength=355 nm, emission 550-800 nm, with a bandpass of 2 nm. A spectrum was recorded for each of the title compounds of Examples 67 to 81.
The fluorescence quantum yield for each of the title compounds of Examples 67 to 81 was determined by measuring the integral of the corrected emission spectra for each compound and calculated relative to TPP=0.11 (Handbook of Photochemistry Ed 2, Murov, Carmichael and Hug, Dekker 1993). The fluorescence quantum yield for each of the title compounds of Examples 67 to 81 are listed in Table 1; values for Zn TPP and Mg TPP are included in Table 1 for reference but they were not measured in this work.

[2] = Singlet oxygen quantum yields (singlet oxygen phosphorescence at 1270 nm); assay type: physicochemical; details: for ΦΔ (singlet oxygen quantum yield): aerated toluene, excitation 355 nm, 20-23° C., relative to TPP ΦΔ=0.58; for quantum yield of singlet oxygen production, ΦΔ (cross-calibration of reference materials): cross-calibrated against TPP ΦΔ=0.58, present work
Method: The singlet oxygen quantum yields were determined by the direct measurement of singlet oxygen phosphorescence at 1270 nm. Samples were excited using the third harmonic of a Q-switched Nd:YAG (neodymium: yttrium-aluminium-garnet) Spectra Physics GCR-150-10 laser, operating at an excitation wavelength of 355 nm. A small fraction of the laser output was passed through a solution state filter containing aqueous cobalt (II) sulphate (CoSO4) to remove residual 532 and 1064 nm radiation and then down a 8 mm diameter liquid light guide (Oriel). For the measurements the end of the light guide was held against a 1 cm×1 cm fluorescence cuvette (Hellma) holding the sample. During the course of the experiments the incident laser energy for each measurement was determined using a pyroelectric detector held behind the sample. This detector was calibrated at the start of the experiment using a second calibrated energy meter (Gentec ED100). The laser energy was adjusted by placing cells containing aqueous sodium nitrite between the CoSO4 filter and the light guide. Typical pulse energies used were in the range of 25-500 μJ per pulse. Shot to shot noise was estimated to be <10% and sets of 20 shots gave an average value within <3%.
Phosphorescence from the sample was collected and passed through an interference filter centred at 1270 nm available from (Infra Red Engineering Ltd) and then focused onto the active area of a liquid nitrogen cooled germanium photodiode (North Coast EO-817P). The output from this device was AC coupled to a digital oscilloscope (Tektronix TDS-320) which digitised and averaged the transients. Typically 20 laser shots were used for each sample. The averaged data was transferred to a PC where it was stored and analysed.
A stock solution of each of the title compounds of Examples 67 to 81 was prepared by dissolving a small sample of the respective title compound in approximately 5 ml of toluene (Fisher Scientific, Analytical grade). The exact concentrations of the stock solution was not determined.
A working solution of each of the title compounds of Examples 67 to 81 was prepared by diluting the respective stock solution with toluene to give an absorbance of 0.100±0.005 at 355 nm when placed in a ultraviolet/visible spectrometer (ATI-Unicam UV-2) compared to a reference cell containing the pure toluene solvent. The ultraviolet/visible spectrum of each sample was also recorded over the range 300-700 nm.
All of the data were recorded at ambient temperature, 20-23° C., and the solutions were aerated. The singlet oxygen emission decay was recorded for each sample using 5 laser energies and the data for each measurement were fitted to an exponential decay of the form I(t)=A.exp(−t/τ), where I(t) is the measured intensity of singlet oxygen phosphorescence at time t, A is the intensity extrapolated back to t=0 (ie when the laser fires), and τ is the lifetime of singlet oxygen. A typical decay for the title compound of Example 78 in toluene excited at 355 nm using a pulse energy of 365 μJ, where A=19.6 and τ=27.8 μs, is shown in FIG. 2.
A plot of A versus the incident laser energy was drawn for each sample and the slope determined. The slope of such a graph is proportional to the singlet oxygen quantum yield. An example of a plot showing the linear relationship between the singlet oxygen emission intensity and the laser energy for the title compound of Example 78 and meso-tetraphenylporphyrin (TPP) is shown in FIG. 3.
The experiments were carried out using batches of 5 samples of the working solution of each of the title compounds of 67 to 81 plus one reference sample meso-tetraphenylporphyrin (TPP). Each run was repeated at least once. The data sets obtained for each sample were within ±5% of the mean value.
The dominant sources of error in the experiment include the shot-to-shot fluctuations in the laser and the difference in absorbances of the samples at the excitation wavelength. The values have an error of ±10%. […]

[3] = reference values from Handbook of Photochemistry Ed 2; not measured in this work; cited from earlier work
[4] = literature values (Rossbroich et al. 1985; Wilkinson et al. 1993); cited from earlier work

SMILES | Quantum yield of fluorescence, relative to TPP = 0.11 [1] | ΦΔ (singlet oxygen quantum yield) [2] | τ, lifetime of singlet oxygen ([2]; toluene, excited at 355 nm, pulse energy 365 μJ (FIG. 2)) [μs] | Quantum yield of fluorescence, relative to TPP = 0.11 [3] | quantum yield of singlet oxygen production, ΦΔ, literature value [4] | quantum yield of singlet oxygen production, ΦΔ (cross-calibration of reference materials) [2]
C=CCCOCCCCCCOc1ccc(-c2c3nc(c(-c4cc(OCCCCCCCCCC)c(OCCCCCCCCCC)c(OCCCCCCCCCC)c4)c4ccc([n-]4)c(-c4cc(OCCCCCCCCCC)c(OCCCCCCCCCC)c(OCCCCCCCCCC)c4)c4nc(c(-c5cc(OCCCCCCCCCC)c(OCCCCCCCCCC)c(OCCCCCCCCCC)c5)c5ccc2[n-]5)C=C4)C=C3)cc1.[Mg+2] [Example 77, 5-[4-(6-but-3-Enyloxy-hexyloxy)-phenyl]-10,15,20-tris-(3,4,5-tridecyloxy-phenyl)-porphyrinato Magnesium] | 0.14 | 0.51 ± 0.05 |  |  |  | 
C=CCCOCCCCCCCCCCCCOc1ccc(-c2c3nc(c(-c4cc(OCCCCCC)cc(OCCCCCC)c4)c4ccc([n-]4)c(-c4cc(OCCCCCC)cc(OCCCCCC)c4)c4nc(c(-c5cc(OCCCCCC)cc(OCCCCCC)c5)c5ccc2[n-]5)C=C4)C=C3)cc1.[Zn+2] [Example 78, 5-[4-(12-but-3-Enyloxy-dodecyloxy)-phenyl]-10,15,20-tris-(3,5-dihexyloxy-phenyl)-porphyrinato Zinc] | 0.04 | 0.78 ± 0.08 | 27.8 |  |  | 
C1=Cc2nc1c(-c1ccccc1)c1ccc([n-]1)c(-c1ccccc1)c1nc(c(-c3ccccc3)c3ccc([n-]3)c2-c2ccccc2)C=C1.[Mg+2] [Mg TPP, magnesium tetraphenylporphyrin] |  |  |  | 0.15 |  | 
C1=Cc2nc1c(-c1ccccc1)c1ccc([nH]1)c(-c1ccccc1)c1nc(c(-c3ccccc3)c3ccc([nH]3)c2-c2ccccc2)C=C1 [TPP, meso-tetraphenylporphyrin] |  |  |  | 0.11 | 0.58 | 
C1=Cc2nc1c(-c1ccccc1)c1ccc([n-]1)c(-c1ccccc1)c1nc(c(-c3ccccc3)c3ccc([n-]3)c2-c2ccccc2)C=C1.[Zn+2] [Zn TPP, zinc tetraphenylporphyrin] |  |  |  | 0.04 | 0.73 | 0.77±0.07
[Zn+2].c1ccc2c(c1)-c1nc-2nc2[n-]c(nc3nc([n-]c4nc(n1)-c1ccccc1-4)-c1ccccc1-3)c1ccccc21 [zinc phthalocyanine, reference compound] |  |  |  |  | 0.50 | 0.46±0.05
